Earlier results as cited in article PMC4894406, “Results of an abbreviated phase-II study with the Akt Inhibitor MK-2206 in Patients with Advanced Biliary Cancer” (Scientific Reports, 2015).

System: cholangiocarcinoma cell lines
Settings: pre-clinical data; cited from earlier work

O=c1cc(N2CCOCC2)oc2c(-c3ccccc3)cccc12 [LY294002]
effect on CXCL12-induced cholangiocarcinoma cell invasion: attenuated

N#CC(=C(/N)Sc1ccccc1N)/C(C#N)=C(/N)Sc1ccccc1N [UO126]
effect on CXCL12-induced cholangiocarcinoma cell invasion: attenuated
